The numbers were not newly measured in patent publication US20050025807A1, “Cured porous calcium phosphate material and uses thereof” (NATIONAL INSTITUTE OF ADVANCED INDUSTRIAL SCIENCE AND …, priority 2003, published 2005), which cites them from elsewhere.

For the data set the following is noted: agitation 200 to 300 rpm at 30° C.; calculated by Nernst-Noyes-Whitney formula.

`CCC1(c2ccccc2)C(=O)NC(=O)NC1=O` [phenobarbitol]: the “Thickness of diffusion layer” value was “about 30 microns”.
